Reference: US20230117920A1, “Library Construction Method, Cyclic Peptide, FXIIa Binder and IFNGR1 Binder” (The University of Tokyo, priority 2019, published 2023)
Starred links: 1 amine or outer side, 2 acyl side, 3 side chain; linkers in the order of their positions; H or OH if unused. Positions of bridges follow the written chain, without caps; N, C: chain ends. Non-standard residues stand in square brackets, D forms with d. Residues, ends and D or L forms follow the SMILES beside them. No end group written: not given here. ACHC(1S,2S) = O=C([C@H]1CCCC[C@@H]1N[*:1])[*:2]; X1 = O=C([C@@H]1CCC[C@H]1N[*:1])[*:2]; X2 = O=C([C@H]1CCC[C@@H]1N[*:1])[*:2]

T1: human factor XIIa (activated blood coagulation factor XII) (human, UniProt P00748 20-615, limits assumed, biotinylated (site not stated))
T1 construct: The construct used for SPR, for the Ki assay and for the cocrystal is not described; The same entry is used for all three; also called FXIIa; FXIIA
T1 sequence (looked up): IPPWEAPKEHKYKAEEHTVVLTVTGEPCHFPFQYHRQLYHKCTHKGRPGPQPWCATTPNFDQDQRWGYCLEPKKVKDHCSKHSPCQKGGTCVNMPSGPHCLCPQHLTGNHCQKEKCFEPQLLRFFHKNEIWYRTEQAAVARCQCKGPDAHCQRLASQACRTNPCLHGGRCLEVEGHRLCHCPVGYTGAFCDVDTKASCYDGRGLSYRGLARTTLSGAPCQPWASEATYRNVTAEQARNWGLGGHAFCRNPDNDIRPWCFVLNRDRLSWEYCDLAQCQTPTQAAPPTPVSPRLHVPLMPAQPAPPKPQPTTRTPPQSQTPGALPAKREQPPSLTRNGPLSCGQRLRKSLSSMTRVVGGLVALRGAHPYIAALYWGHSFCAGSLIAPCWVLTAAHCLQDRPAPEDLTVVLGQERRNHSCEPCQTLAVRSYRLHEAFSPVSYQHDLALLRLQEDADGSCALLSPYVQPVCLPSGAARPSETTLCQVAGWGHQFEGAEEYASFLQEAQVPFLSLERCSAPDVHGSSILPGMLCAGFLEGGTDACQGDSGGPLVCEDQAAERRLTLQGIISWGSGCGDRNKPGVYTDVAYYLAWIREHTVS

B1: F2 (peptide)
peptide: YPRLFNXSYLRRC
modifications: not fully specified; 1: D-Tyr, N-acetylated (from N-chloroacetyl-D-Tyr), thioether to D-Cys 13 (cyclic peptide); 7 (X, printed '2'): (1R,2R)-2-ACPC; 13: D-Cys
B2: F1A (peptide)
peptide: {CH2CO}-[dY]NDRSTRARLVA[dC]
modifications: thioether N-13
notes: also called negative control peptide of F1; Ala mutant F1A
B3: F4 (peptide)
peptide: YRYTXNRLFXNAC
modifications: not fully specified; 1: D-Tyr, N-acetylated (from N-chloroacetyl-D-Tyr), thioether to D-Cys 13 (cyclic peptide); 5 and 10 (X, printed '1'): (1S,2S)-2-ACHC; 13: D-Cys
B4: F1 (peptide)
peptide: YNDRSTRXRLVAC
modifications: not fully specified; 1: D-Tyr, N-acetylated (from N-chloroacetyl-D-Tyr), the acetyl joined by a thioether bond to the thiol of D-Cys 13 (cyclic peptide); 8 (X, printed '2'): (1R,2R)-2-ACPC; 13: D-Cys

What was measured:
[1] = biological target: human factor XIIa (FXIIa) (Homo sapiens, UniProt P00748); experiment: biochemical; conditions: for kon: read-out: ka
FXIIa = FXIIa (Homo sapiens, UniProt P00748); experiment: biochemical
[2] = biological target: interferon γ receptor 1 (IFNGR1) (Homo sapiens, UniProt P15260); experiment: biochemical; conditions: for kon: read-out: ka
[3] = biological target: human factor XIIa (activated blood coagulation factor XII) (human) (UniProt P00748); experiment: SPR, Biacore T200, 25 C, single cycle kinetics, 1:1 model
[4] = biological target: T1, human factor XIIa (activated blood …); experiment: as above

Row | Molecule | kon [1] | Kd [2] | kon [2] | other results
1 | CC(C)C[C@@H]1NC(=O)[C@H](CCCNC(=N)N)NC(=O)[C@@H]2CCC[C@H]2NC(=O)[C@H](CCCNC(=N)N)NC(=O)[C@H]([C@@H](C)O)NC(=O)[C@H](CO)NC(=O)[C@H](CCCNC(=N)N)NC(=O)[C@H](CC(=O)O)NC(=O)[C@H](CC(N)=O)NC(=O)[C@@H](Cc2ccc(O)cc2)NC(=O)CSC[C@H](C(=O)NCC(N)=O)NC(=O)[C@H](C)NC(=O)[C@H](C(C)C)NC1=O [F1] ({CH2CO}-[dY]NDRSTR[X1]RLVA[dC]G-NH2; thioether N-13) | 2.74e+06 M⁻¹ s⁻¹ |  |  | Kd [1]: 8.21 nM; Ki (FXIIa): 22.1 nM
2 | CC(C)C[C@@H]1NC(=O)[C@H](CO)NC(=O)[C@H](Cc2ccccc2)NC(=O)[C@@H](Cc2ccc(O)cc2)NC(=O)CSC[C@H](C(=O)NCC(N)=O)NC(=O)CNC(=O)[C@H](CCCNC(=N)N)NC(=O)[C@H](CO)NC(=O)[C@H](CCCNC(=N)N)NC(=O)[C@H](CC(N)=O)NC(=O)[C@H](Cc2ccccc2)NC(=O)[C@H](CO)NC(=O)[C@@H]2CCC[C@H]2NC(=O)[C@H](CCCNC(=N)N)NC1=O [I1-4] ({CH2CO}-[dY]FSLR[X1]SFNRSRG[dC]G-NH2; thioether N-14) |  | 5.76 nM | 3.39e+06 M⁻¹ s⁻¹ | 
3 | CC(C)C[C@@H]1NC(=O)[C@H](CCCNC(=N)N)NC(=O)[C@H](C)NC(=O)[C@H](CCCNC(=N)N)NC(=O)[C@H]([C@@H](C)O)NC(=O)[C@H](CO)NC(=O)[C@H](CCCNC(=N)N)NC(=O)[C@H](CC(=O)O)NC(=O)[C@H](CC(N)=O)NC(=O)[C@@H](Cc2ccc(O)cc2)NC(=O)CSC[C@H](C(N)=O)NC(=O)[C@H](C)NC(=O)[C@H](C(C)C)NC1=O [F1A] ({CH2CO}-[dY]NDRSTRARLVA[dC]-NH2; thioether N-13) | 580000 M⁻¹ s⁻¹ |  |  | 
4 | CC(C)C[C@@H]1NC(=O)CNC(=O)[C@H](C(C)C)NC(=O)[C@@H](Cc2ccc(O)cc2)NC(=O)CSC[C@H](C(=O)NCC(N)=O)NC(=O)[C@H]([C@@H](C)O)NC(=O)[C@H](CCCNC(=N)N)NC(=O)[C@H](CC(N)=O)NC(=O)[C@H](CC(C)C)NC(=O)[C@H](CO)NC(=O)[C@@H]2CCC[C@H]2NC(=O)[C@H](CC(N)=O)NC1=O [I1-3] ({CH2CO}-[dY]VGLN[X1]SLNRT[dC]G-NH2; thioether N-12) |  | 150 nM | 1.41e+06 M⁻¹ s⁻¹ | 
5 | CC(C)C[C@@H]1NC(=O)[C@H](Cc2ccc(O)cc2)NC(=O)[C@H](CO)NC(=O)[C@H](C)NC(=O)[C@H](CC(N)=O)NC(=O)[C@H](Cc2ccccc2)NC(=O)[C@H](CC(C)C)NC(=O)[C@H](CCCNC(=N)N)NC(=O)[C@@H]2CCCN2C(=O)[C@@H](Cc2ccc(O)cc2)NC(=O)CSC[C@H](C(N)=O)NC(=O)[C@H](CCCNC(=N)N)NC(=O)[C@H](CCCNC(=N)N)NC1=O [F2A] ({CH2CO}-[dY]PRLFNASYLRR[dC]-NH2; thioether N-13) | 4.75e+06 M⁻¹ s⁻¹ |  |  | 
6 | CC(C)[C@@H]1NC(=O)CNC(=O)[C@H](Cc2ccccc2)NC(=O)[C@@H](Cc2ccc(O)cc2)NC(=O)CSC[C@H](C(=O)NCC(N)=O)NC(=O)[C@H]([C@@H](C)O)NC(=O)[C@H](CCCNC(=N)N)NC(=O)[C@H](CC(N)=O)NC(=O)[C@H](Cc2ccc(O)cc2)NC(=O)[C@H](Cc2ccccc2)NC(=O)[C@@H]2CCC[C@H]2NC(=O)[C@H]2CCC[C@@H]2NC1=O [I1-6] ({CH2CO}-[dY]FGV[X2][X1]FYNRT[dC]G-NH2; thioether N-12) |  | 1.87 nM | 920000 M⁻¹ s⁻¹ | 
7 | CC(C)[C@@H]1NC(=O)CNC(=O)[C@H](Cc2ccccc2)NC(=O)[C@@H](Cc2ccc(O)cc2)NC(=O)CSC[C@H](C(=O)NCC(N)=O)NC(=O)[C@H]([C@@H](C)O)NC(=O)[C@H](CCCNC(=N)N)NC(=O)[C@H](CC(N)=O)NC(=O)[C@H](Cc2ccc(O)cc2)NC(=O)[C@H](Cc2ccccc2)NC(=O)[C@@H]2CCC[C@H]2NC(=O)[C@H](CCCNC(=N)N)NC1=O [I1-1] ({CH2CO}-[dY]FGVR[X1]FYNRT[dC]G-NH2; thioether N-12) |  | 5 nM | 1.74e+06 M⁻¹ s⁻¹ | 
8 | CC(C)C[C@@H]1NC(=O)[C@H](CCCNC(=N)N)NC(=O)[C@H](CC(N)=O)NC(=O)[C@H]2CCCC[C@@H]2NC(=O)[C@H]([C@@H](C)O)NC(=O)[C@H](Cc2ccc(O)cc2)NC(=O)[C@H](CCCNC(=N)N)NC(=O)[C@@H](Cc2ccc(O)cc2)NC(=O)CSC[C@H](C(=O)NCC(N)=O)NC(=O)[C@H](C)NC(=O)[C@H](CC(N)=O)NC(=O)[C@H]2CCCC[C@@H]2NC(=O)[C@H](Cc2ccccc2)NC1=O [F4] ({CH2CO}-[dY]RYT[ACHC(1S,2S)]NRLF[ACHC(1S,2S)]NA[dC]G-NH2; thioether N-13) | 550000 M⁻¹ s⁻¹ |  |  | Kd [1]: 15.5 nM; Ki (FXIIa): 4.32 nM
9 | CC(C)C[C@@H]1NC(=O)[C@H]2CCCC[C@@H]2NC(=O)[C@H](CCCNC(=N)N)NC(=O)[C@H](CCCNC(=N)N)NC(=O)[C@H](CC(=O)O)NC(=O)[C@H](Cc2ccc(O)cc2)NC(=O)[C@H](C)NC(=O)[C@H](Cc2ccccc2)NC(=O)[C@@H](Cc2ccc(O)cc2)NC(=O)CSC[C@H](C(=O)NCC(N)=O)NC(=O)[C@H](Cc2ccc(O)cc2)NC(=O)[C@H](CC(N)=O)NC(=O)[C@H](CCCNC(=N)N)NC(=O)[C@H]2CCCC[C@@H]2NC(=O)[C@H](CC(N)=O)NC(=O)[C@H](CC(N)=O)NC(=O)[C@H](CO)NC1=O [F3] ({CH2CO}-[dY]FAYDRR[ACHC(1S,2S)]LSNN[ACHC(1S,2S)]RNY[dC]G-NH2; thioether N-17) | 1.59e+06 M⁻¹ s⁻¹ |  |  | 
10 | CC(C)C[C@@H]1NC(=O)[C@H](Cc2ccc(O)cc2)NC(=O)[C@H](CO)NC(=O)[C@@H]2CCC[C@H]2NC(=O)[C@H](CC(N)=O)NC(=O)[C@H](Cc2ccccc2)NC(=O)[C@H](CC(C)C)NC(=O)[C@H](CCCNC(=N)N)NC(=O)[C@@H]2CCCN2C(=O)[C@@H](Cc2ccc(O)cc2)NC(=O)CSC[C@H](C(=O)NCC(N)=O)NC(=O)[C@H](CCCNC(=N)N)NC(=O)[C@H](CCCNC(=N)N)NC1=O [F2] ({CH2CO}-[dY]PRLFN[X1]SYLRR[dC]G-NH2; thioether N-13) | 3.07e+07 M⁻¹ s⁻¹ |  |  | Kd [1]: 0.58 nM; Ki (FXIIa): 2.14 nM
11 | CC(C)C[C@@H]1NC(=O)[C@H](C)NC(=O)[C@H](Cc2ccccc2)NC(=O)[C@@H](Cc2ccc(O)cc2)NC(=O)CSC[C@H](C(=O)NCC(N)=O)NC(=O)[C@H](CCCNC(=N)N)NC(=O)[C@H](CCCNC(=N)N)NC(=O)[C@H](CC(N)=O)NC(=O)[C@H]2CCCC[C@@H]2NC(=O)[C@H](CCCNC(=N)N)NC(=O)[C@@H]2CCC[C@H]2NC(=O)[C@H](CC(N)=O)NC1=O [I1-5] ({CH2CO}-[dY]FALN[X1]R[ACHC(1S,2S)]NRR[dC]G-NH2; thioether N-12) |  | 336 nM | 3.01e+06 M⁻¹ s⁻¹ | 
12 | CC(C)C[C@@H]1NC(=O)[C@H](CC(N)=O)NC(=O)[C@H](Cc2ccc(O)cc2)NC(=O)[C@H](CCCNC(=N)N)NC(=O)[C@@H]2CCCN2C(=O)[C@@H](Cc2ccc(O)cc2)NC(=O)CSC[C@H](C(=O)NCC(N)=O)NC(=O)[C@H](CC(N)=O)NC(=O)[C@@H]2CCC[C@H]2NC(=O)[C@H](Cc2ccccc2)NC(=O)[C@H](CCCNC(=N)N)NC(=O)[C@@H]2CCCN2C(=O)[C@H](CO)NC(=O)[C@H](C)NC(=O)CNC(=O)[C@H]2CCC[C@@H]2NC1=O [I2] ({CH2CO}-[dY]PRYNL[X2]GASPRF[X1]N[dC]G-NH2; thioether N-16) |  | 12.3 nM | 1.98e+06 M⁻¹ s⁻¹ | 
13 | B1 |  |  |  | koff [3]: 0.0178 s⁻¹
14 | B2 |  |  |  | Kd [4]: 51.3 nM; koff [4]: 0.0297 s⁻¹
15 | B3 |  |  |  | koff [3]: 0.0085 s⁻¹
16 | B4 |  |  |  | koff [3]: 0.0225 s⁻¹
